Experimental data reported in patent publication US9783518B2, “Therapeutic agent and treatment method for ameliorating uremia” (Toray Industries, Inc., priority 2005, dated 2017).
“Also recorded” adds a separate entry of the source.

What was measured:
[1] = test system: cats with chronic renal failure; experiment: Clinical score of uremic symptoms (activity + appetite) in cats with chronic renal failure; format: in vivo, cat; details: for clinical total score (full points 5): after one month
Method: (§1) Testing methods for the patients showing uremia caused by chronic renal failure, employed in Example 4 or later, will now be described. The criteria and evaluation items for the cats and dogs with chronic renal failure are as follows: Diagnosis of uremia and chronic renal failure were performed totally taking clinical findings (including findings of uremia) and the results of the blood test, blood biochemical analysis and urinalysis into consideration. As the clinical findings of uremia, existence and degree of polydipsia and diuresis, dehydration, anorexia, weight loss, vomiting symptom and state of dehydration were observed. Existence of chronic renal failure was judged based on the serum Cre value as generally employed. As reference data for grasping the degree of progress of chronic renal failure, BUN value was also monitored.
This pilot clinical test was performed after obtaining informed consent of the owners of the cats (clients) before the start of the test, wherein the clients received explanations about the fact that beraprost sodium had already been approved as a drug for human chronic artery obstruction and had already been marketed, and about the safety thereof. Further, giving first priority to the benefit of the patients and clients, conventional therapeutic methods were also combined appropriately for the individuals with progressed renal failure. Examples of the concomitant drugs employed include synthetic active carbons such as Covalzin, Kremezin and Nefguard; calcium preparations such as calcium carbonate; formula meals such as k/d and low-protein diets; and infusion solutions. However, in cases where there was a rational reason and consent by the owner was obtained, beraprost sodium alone was administered even to the individual with progressed renal failure. On the other hand, drugs thought to influence on the action of beraprost sodium, such as vasodilators (e.g., enalapril), diuretic (e.g., furosemide), drugs which influence on renal blood flow (e.g., dopamine) and steroids (e.g., prednisolone) were not used.
(§2) Administration of beraprost sodium was conducted by orally administering the tablet with a content of 150 μg/tablet (Example 1) twice a day (300 μg/head/day). The administration was conducted every day and continued basically for 6 months, and in cases where the owner desired, the administration was continued even after the test period. The Examples of the present invention include both cases where the dosing period was less than 6 months and more than 6 months.
Evaluation of degree of improvement of the uremic symptoms was carried out as follows: From the clinical symptoms related to uremia, activity and appetite, which are unlikely to be overlooked and which can be observed universally from before to after the test period, were selected. […] The evaluation was carried out based on the total points (full points were 5 points). Thus, a higher point indicates more improvements in the clinical symptoms.

healthy cats = experiment: Blood test and blood chemical analysis in healthy cats; format: in vivo, cat; details: after 7 days BID at 10-100 μg/kg oral
Method: In this study, 3 male cats and 2 female cats, totally 5 Japanese cats, aging 3 to 6 years old were used, which were raised in an animal hospital and for which no abnormalities were observed clinically and by blood test. The subject cats were individually placed in each cage in which each cat was allowed to take water ad libitum, and each cat was fed twice a day after measuring the necessary items. For the purpose of acclimatization, the cats were measured for blood pressure noninvasively twice a day for 2 weeks.
Blood test and blood chemical analysis were carried out as follows: Blood was collected before administration of beraprost sodium and on the next day of the termination of continuous administration for 7 days at each dose (the continuous administration of one test compound for 7 days is hereinafter referred to as “1 series”) at fasting, and analyzed. Inspection items in the blood test were RBC, WBC, PCV, Hb and Plat, and those in the blood chemical analysis were AST, ALT, T.P, BUN, Cre, Na, K and Cl.
In each administration series, the same cat was used in each administration series as the subject cat for the correctness of the evaluation of the test drug. To eliminate the influence of the test drug of the previous series, wash out period of 2 weeks were given after the termination of the respective series. […]

[2] = test system: cats with chronic renal failure; experiment: Blood biochemical analysis and urinalysis (BUN, serum Cre, glucose) in cats with chronic renal failure; format: in vivo, cat
Method: as §1
In the blood test, RBC, WBC, PCV, Hg and PLT were measured. In the blood biochemical analysis, TP, Tcho, AST, ALT, ALP, Tbil, BUN, creatinine, calcium, inorganic phosphorus, glucose, sodium ion, potassium ion and chloride ion were measured. In the urinalysis, protein amount, pH, occult blood, bilirubin and glucose were measured. To eliminate the circadian rhythm and influence by meals on the values of blood biochemical markers, every blood collection was carried out in the morning before feeding (at fasting).
As a more specific criterion for chronic renal failure in cats and dogs in the present Examples, a serum Cre value of 1.4 mg/dL in the blood test was employed. Serum Cre value was measured by creatinine deaminase-amidohydrolase method, and the BUN value as reference data for grasping the degree of progress of chronic renal failure was measured by urease-GLDH method.
as §2

[3] = test system: patients with renal failure; details: renal failure in conservative stage; cited from earlier work
[4] = test system: rats which spontaneously develops hypertension; details: administered together with saline and special diet; cited from earlier work
[5] = Case-A, 6 months after termination (12 months after start)
[6] = Case-E, combination therapy, first about 3 months
[7] = Case-A, 150 μg oral BID alone, from start of administration
[8] = Case-B, daily administration for 1 and half years
[9] = Case-G cat, before the administration (baseline)

CC#CC[C@@H](C)[C@H](O)/C=C/[C@@H]1[C@H]2c3cccc(CCCC(=O)[O-])c3O[C@H]2C[C@H]1O.[Na+] (mixture of isomers) [beraprost sodium, Sodium rac-(1R,2R,3aS,8bS)-2,3,3a,8b-tetrahydro-2-hydroxy-1-[(E)-(3S,4RS)-3-hydroxy-4-methyloct-1-en-6-ynyl]-1H-cyclopenta[b][1]benzofuran-5-butanoate]
clinical score (full points 5) ([1]; Case-A, male cat 5 y, 150 μg tablet oral BID alone, first month): 4 | clinical score (full points 5) ([1]; Case-A, 150 μg oral BID alone, second month, maintained for 6 months): 5 | clinical conditions / uremic symptoms at follow up [1, 5]: not observed at all; also recorded: very good | outcome of uremia and renal failure ([1]; Case-A, 6 months of 150 μg oral BID alone): completely cured | differences from normal cats in clinical observations and biochemical markers ([1]; Case-A, end of the 6-month dosing period): no differences | total score of the clinical symptoms (full points 5) ([1]; Case-B, male cat 4 y, 150 μg oral BID alone, 1 month after start, 3 points before): 5 points | clinical symptoms ([1]; Case-B, first to second month): slight amelioration | clinical score (full points 5) ([1]; Case-B, from the fourth month): 5 points | clinical score (full points 5) ([1]; Case-C, female cat 16 y, 150 μg oral BID alone, second week, 2 points before): 4 points | clinical score (full points 5) ([1]; Case-C, after 2.5 months): 5 points | clinical score (full points 5) ([1]; Case-C, after the sixth week): 4 points | clinical score (full points 5) ([1]; Case-C, sixth week): 2 points | clinical total score (full points 5) ([1]; Case-D, male Siamese cat 17 y, 150 μg oral BID alone, 2 points before): 5 points | clinical total score (full points 5) ([1]; Case-E, 150 μg oral BID plus Covalzin 200 mg/BID, calcium preparation, formula meal, infusion, 0 point before): 4 points | dehydration [1, 6]: completely disappeared | clinical score (full points 5) ([1]; Case-E, combination therapy, for about 3 months): 5 points | clinical score (full points 5) ([1]; Case-E, combination without Covalzin from fourth month, for about 2 months): 3 points | clinical score (full points 5) ([1]; Case-E, combination without Covalzin, 7th to 8th month): 5 points | clinical score (full points 5) ([1]; Case-F, 150 μg oral BID added to insulin, active carbon, calcium carbonate, first month, continues 10 months): 5 points | uremic symptoms ([1]; Case-F, combination therapy, after start of beraprost sodium): disappeared; also recorded: quickly improved | appetite and desire for water ([1]; cats with renal failure, overall): clearly improved | blood cell count, electrolytes, renal function and liver function (healthy cats): no adverse change was observed | time at which BUN reached the minimum value ([2]; Case-A, 150 μg oral BID alone): second | time at which serum Cre reached the minimum value ([2]; Case-A, 150 μg oral BID alone): fifth | BUN [2, 7]: decreased | serum Cre [2, 7]: decreased | BUN at follow up [2, 5]: remained within the normal ranges; also recorded: maintained at normal levels | serum Cre value at follow up [2, 5]: remained within the normal ranges; also recorded: maintained at normal levels | BUN [2, 8]: maintained at the normal levels | Cre [2, 8]: maintained at the normal levels | BUN value ([2]; Case-B, first to second month): tendency that BUN value and serum Cre value increase | serum Cre value ([2]; Case-B, first to second month): tendency that BUN value and serum Cre value increase | BUN value ([2]; Case-B, from the fourth month): sharply decreased to the normal values | serum Cre value ([2]; Case-B, from the fourth month): sharply decreased to the normal values | BUN value ([2]; Case-C, during administration): continuously increased | serum Cre value ([2]; Case-C, during administration): did not change or slightly increased | BUN value ([2]; Case-D, after administration): continuously increased | serum Cre value ([2]; Case-D, after administration): kept a high value | BUN value ([2]; Case-E, 7th to 8th month): largely increased | Cre value ([2]; Case-E, 7th to 8th month): kept high | BUN value [2, 6]: continuously increased | serum Cre value [2, 6]: kept high | BUN value ([2]; Case-F, after start of beraprost sodium): kept high | serum Cre value ([2]; Case-F, throughout the entire period): continuously increased | BUN value [2, 9]: 52.2 mg/dL | serum Cre value [2, 9]: 2.56 mg/dL | renal function (creatinine clearance or reciprocal of serum creatinine) [3]: reduced the decrease in renal function | onset of glomerulonephritis (urinary protein excretion, glomerulus tissue image) [4]: prevented
